From ChEMBL document CHEMBL1157560, “SAR studies on new bis-aryls 5-HT7 ligands: Synthesis and molecular modeling” (Bioorg Med Chem, 2010)

Target: 5-hydroxytryptamine receptor 7 (Homo sapiens, UniProt P34969)
Assay: Displacement of [3H]5CT from human cloned 5HT7B receptor expressed in HEK293 cells
Assay type: cell-based

Chain of 5-hydroxytryptamine receptor 7 (P34969 whole entry): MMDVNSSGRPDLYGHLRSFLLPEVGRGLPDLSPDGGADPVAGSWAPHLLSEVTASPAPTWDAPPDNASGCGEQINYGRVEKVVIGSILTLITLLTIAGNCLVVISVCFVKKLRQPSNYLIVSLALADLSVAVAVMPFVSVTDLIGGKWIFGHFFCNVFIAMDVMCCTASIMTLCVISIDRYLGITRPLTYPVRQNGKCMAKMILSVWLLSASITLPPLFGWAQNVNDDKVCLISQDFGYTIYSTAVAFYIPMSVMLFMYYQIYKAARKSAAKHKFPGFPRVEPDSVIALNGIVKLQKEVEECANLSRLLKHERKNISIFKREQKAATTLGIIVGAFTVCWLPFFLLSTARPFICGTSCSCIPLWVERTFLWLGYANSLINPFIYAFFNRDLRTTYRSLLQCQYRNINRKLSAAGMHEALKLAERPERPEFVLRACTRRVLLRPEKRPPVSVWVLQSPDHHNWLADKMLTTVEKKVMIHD

Structure (SMILES)	Ki
CN(C)CCSc1cccc(Br)n1	37 nM
Cc1cccc(C)c1-c1cccc(OCCN(C)C)n1	1610 nM
Cc1cccc(C)c1-c1cnnc(CCN(C)C)n1	> 10000 nM
CCCN(CCC)[C@H]1COc2c(cccc2-c2ccccc2)C1	3.38 nM
COc1cccc(OC)c1-c1cnnc(CCN(C)C)n1	> 10000 nM
CN(C)CCOc1ccccc1Br	2660 nM
COc1cccc(OC)c1-c1ccnc(CCN(C)C)n1	1480 nM
Cc1cccc(C)c1-c1ccccc1SCCN(C)C	1430 nM
COc1ccccc1-c1ccccc1OCCN(C)C	669 nM
CN(C)CCSc1ccccc1Br	4110 nM
CN(C)CCc1nncc(-c2ccccc2)n1	> 10000 nM
Cc1cccc(C)c1-c1cccc(SCCN(C)C)n1	128 nM
Cc1cccc(C)c1-c1ccc2c(c1)C[C@H](N(C)C)CO2	13.4 nM
CCCN(CCC)[C@H]1CCc2c(cccc2-c2cccc3ccccc23)C1	0.3 nM
CN(C)CCOc1ccccc1-c1ccccc1	156 nM
CN(C)CCSc1cccc(-c2ccoc2)n1	26 nM
CN(C)CCSc1ccccc1-c1ccccc1	553 nM
CCCN(CCC)[C@H]1CCc2c(cccc2-c2ccccc2)C1	2.91 nM
COc1cccc(OC)c1-c1cccc2c1OC[C@H](N(C)C)C2	2.55 nM

Target: T1, 5-hydroxytryptamine receptor 1A (Rattus norvegicus, UniProt P19327)
T1 sequence (P19327 whole entry): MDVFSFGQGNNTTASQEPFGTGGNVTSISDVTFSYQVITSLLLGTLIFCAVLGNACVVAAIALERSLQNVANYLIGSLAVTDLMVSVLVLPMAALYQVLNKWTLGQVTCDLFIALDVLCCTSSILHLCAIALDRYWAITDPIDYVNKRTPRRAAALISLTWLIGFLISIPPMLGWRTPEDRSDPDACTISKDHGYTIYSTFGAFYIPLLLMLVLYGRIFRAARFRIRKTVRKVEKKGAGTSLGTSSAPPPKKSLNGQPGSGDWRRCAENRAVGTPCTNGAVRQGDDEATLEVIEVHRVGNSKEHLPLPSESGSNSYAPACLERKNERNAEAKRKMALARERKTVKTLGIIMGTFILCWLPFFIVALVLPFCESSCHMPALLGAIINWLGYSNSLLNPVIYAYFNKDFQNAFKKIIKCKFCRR
Assay: Displacement of [3H]8-OH-DPAT from 5HT1A receptor in rat hippocampus
Assay type: tissue-based

Structure (SMILES)	Ki
Cc1cccc(C)c1-c1cccc(SCCN(C)C)c1	2350 nM
CN(C)CCSc1cccc(-c2ccccc2)c1	516 nM
CN(C)CCSc1cccc(Br)n1	133 nM
Cc1cccc(C)c1-c1cccc(OCCN(C)C)n1	7220 nM
CN(C)CCSc1cccc(-c2ccccc2)n1	43 nM
CN(C)CCOc1cccc(Br)n1	902 nM
Cc1cccc(C)c1-c1cccc(SCCN(C)C)n1	927 nM
CN(C)CCSc1cccc(Br)c1	676 nM
CN(C)CCSc1cccc(-c2ccoc2)n1	28 nM
